Reference: US5480983A, “Adenosine derivatives, preparation methods and pharmaceutical compositions containing them” (Laboratoires UPSA, priority 1992, dated 1996)

What was measured:
[1] = target: T1, rat central A2 adenosinergic receptors (Rattus norvegicus, UniProt P30543); assay: Binding to adenosine A2 receptors ([3H] NECA displacement); conditions: [3H] NECA 4 nM, n=3; for inhibition at 10 µM: read-out: % displacement of the labeled ligand, A2, 1E-5M; for inhibition at 0.1 µM: read-out: % displacement of the labeled ligand, A2, 1E-7M
T1 construct: the striatum is removed from each of them (Bruns et al., 1986); from tissue; host or cells: rat striatum, homogenate (membrane preparation)
Procedure: (§1) The affinity of the products of the Examples for the rat central A1 and A2 adenosinergic receptors is determined by the competitive technique using a radioactive ligand specifically bound either to the A1 receptors ([^3 H] PIA) or to the A2 receptors ([^3 H] NECA).
Method of studying the A2 receptors Membrane preparation
After decapitation of the animal, the brain is quickly removed and washed in cold isotonic solution. The two hemispheres are separated and the striatum is removed from each of them (Bruns et al., 1986), weighed and introduced into a polyallomer tube containing 10 volumes of cold homogenization buffer. The tissue is homogenized with an Ultra-Turrax for 30 seconds (3 times 10 seconds with 10-second intervals, 70% of the maximum speed). The ground material is centrifuged at 50,000 g (≈20,500 rpm) for 10 minutes at 4° C.
The residue obtained is resuspended in 10 volumes of homogenization buffer using a Vortex and homogenized with the Ultra-Turrax (5 to 10 seconds, 70% of the maximum speed).
Adenosine deaminase is then added at a rate of 1 U/ml, i.e. 1 μl/ml of homogenate, using a 10 μl Hamilton syringe. The homogenate treated in this way is shaken at room temperature for 30 minutes.
When the incubation is complete, the homogenate is centrifuged at 50,000 g (≈20,500 rpm) for 10 minutes at 4° C.
The residue is taken up with 5 volumes of cold homogenization buffer and passed through the Ultra-Turrax (2 times 10 seconds with a 10-second interval, 70% of the maximum speed) and the homogenate prepared in this way is finally frozen at -70° C. Competitive test
After the homogenate has been thawed at room temperature, 15 volumes of incubation buffer are added. The homogenate is shaken on a Vortex, passed through a Potter mill (6 to-and-fro movements, speed 6), diluted to 1/10 in incubation buffer and finally placed in a water bath thermostated at 4° C., with shaking, until the end of the experiment.
(§2) 50 μl of [^3 H] NECA at 160 nM, i.e. 4 nM in the final reaction medium allowing for the 1/40 dilution, and 50 μl of the product of the Example at the concentrations considered (10^-5 M and 10^-7 M) are introduced into the reaction tubes. The reaction is initiated by the addition of 1 ml of homogenate and 900 μl of incubation buffer. The procedure is similar for all the compounds studied.
The tubes are shaken and incubated in a water bath at 25° C. for 60 minutes. When the incubation is complete, the contents of the tubes are filtered on Whatman GF/B paper. Each tube is washed twice with 2 ml of rinsing buffer and then the filters themselves are rinsed with 3 ml of this same buffer before being transferred to counting flasks.
10 ml of liquid scintillator (Ready Solv HP/b, Beckman) are added to all the flasks. These are shaken and stored in a refrigerator overnight. The radioactivity is determined in a liquid scintillation counter.
(§3) 3 tests are performed for each concentration studied. The non-specific binding of the [^3 H] NECA is determined by measuring the amount of radioactivity retained on the filter in the presence of 5 μM N-ethylcarboxamidoadenosine (NECA). The value of the non-specific binding is systematically subtracted from that of the tests.
(§4) The results are expressed for each product in the form of the percentage displacement (n=3) of the labeled radioligand at concentrations of 10^-5 M and 10^-7 M.

[2] = Phenylbenzoquinone test (analgesic activity); format: in vivo; conditions: Mus musculus, 1 h; mice; oral, one hour before phenylbenzoquinone i.p.; 5 minutes observation; read-out: Phenylbenzoquinone test 50% inhibitory dose
Procedure: 2. Phenylbenzoquinone test
The intraperitoneal injection of phenylbenzoquinone causes twisting and stretching movements in mice. Analgesics prevent or reduce this syndrome, which can be considered as the exteriorization of diffuse abdominal pain.
A 0.02% solution of phenylbenzoquinone in water is administered in a volume of 1 ml/100 g.
The products of the Examples are administered orally one hour before the injection of phenylbenzoquinone.
The stretching and twisting movements are counted for each mouse over an observation period of 5 minutes.

[3] = target: T2, rat central A1 adenosinergic receptors (Rattus norvegicus, UniProt P25099); assay: Binding to adenosine A1 receptors ([3H] PIA displacement); conditions: [3H] PIA 2.5 nM, n=3; for inhibition at 10 µM: read-out: % displacement of the labeled ligand, A1, 1E-5M; for inhibition at 0.1 µM: read-out: % displacement of the labeled ligand, A1, 1E-7M
T2 construct: After the animal has been sacrificed by decapitation, the brain is quickly removed and washed in cold isotonic solution; from tissue; host or cells: rat brain, membrane preparation from the two hemispheres
T2 sequence (P25099 1-326): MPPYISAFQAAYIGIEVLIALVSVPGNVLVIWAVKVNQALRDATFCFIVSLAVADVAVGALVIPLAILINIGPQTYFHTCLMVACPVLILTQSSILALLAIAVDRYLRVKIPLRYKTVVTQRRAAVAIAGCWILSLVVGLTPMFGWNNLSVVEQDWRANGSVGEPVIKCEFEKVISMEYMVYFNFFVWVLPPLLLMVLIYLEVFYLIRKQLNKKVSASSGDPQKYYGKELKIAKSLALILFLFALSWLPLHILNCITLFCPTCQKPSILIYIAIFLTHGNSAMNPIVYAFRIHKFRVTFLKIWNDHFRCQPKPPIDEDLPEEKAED
Procedure: as §1
After the animal has been sacrificed by decapitation, the brain is quickly removed and washed in cold isotonic solution. The two hemispheres are separated and weighed and each of them is introduced into a polyallomer tube containing 25 volumes of cold homogenization buffer. Homogenization is effected using an Ultra-Turrax for 30 seconds (3 times 10 seconds with 10-second intervals, 70% of the maximum speed). The ground material obtained is centrifuged at 1000 g (≈3000 rpm) for 10 minutes at 4° C.
The supernatant is centrifuged again at 48,000 g (≈20,000 rpm) for 20 minutes at 4° C.
When this step is complete, the residue is taken up with 4 volumes of homogenization buffer, resuspended using a Vortex and homogenized with the Ultra-Turrax. Adenosine deaminase is then added at a rate of 1 U/ml, i.e. 1 μl/ml of homogenate, using a 10 μl Hamilton syringe.
After this treatment, the homogenate is shaken for 30 minutes at room temperature and then centrifuged at […] (≈20,000 rpm) for 30 minutes at 4° C.
The residue obtained is resuspended in 10 volumes of homogenization buffer and passed through the Ultra-Turrax for 20 seconds (2 times 10 seconds with a 10-second interval, 70% of the maximum speed).
The homogenate prepared in this way is used for the competitive tests. It is kept at 4° C. if the studies take place the same day, or stored at -20° C. in the form of 10 ml aliquots.
After the homogenate has been thawed at room temperature, it is passed through a Potter mill (6 manual to-and-fro movements, speed 6), diluted to 2/5 in incubation buffer and placed in a water bath thermostated at 4° C., with shaking, until the end of the experiment.
as §2, with “H] PIA” for “H] NECA”, “at 100” for “at 160”, “i.e. 2.5” for “i.e. 4”, “considered ([…]” for “considered (10^-5”, “is identical” for “is similar”, “the […]” for “the compounds”
The tubes are shaken and incubated in a water bath at 20° C. for 30 minutes. When the incubation is complete, the contents of the tubes are filtered on Whatman GF/B paper. Each tube is washed twice with 2 ml of rinsing buffer and then the filters themselves are rinsed with 3 ml of this same buffer.
The filters are then transferred to counting flasks and 10 ml of liquid scintillator (Ready Solv HP/b, Beckman) are added.
After they have been shaken, the flasks are stored in a refrigerator overnight and the radio-activity is then determined in a liquid scintillation counter.
as §3, with “PIA” for “NECA”, “assessed” for “determined”, “10^-5 M phenylisopropyladenosine (PIA).” for “5 μM N-ethylcarboxamidoadenosine (NECA).”
as §4

T1 sequence (P30543 whole entry): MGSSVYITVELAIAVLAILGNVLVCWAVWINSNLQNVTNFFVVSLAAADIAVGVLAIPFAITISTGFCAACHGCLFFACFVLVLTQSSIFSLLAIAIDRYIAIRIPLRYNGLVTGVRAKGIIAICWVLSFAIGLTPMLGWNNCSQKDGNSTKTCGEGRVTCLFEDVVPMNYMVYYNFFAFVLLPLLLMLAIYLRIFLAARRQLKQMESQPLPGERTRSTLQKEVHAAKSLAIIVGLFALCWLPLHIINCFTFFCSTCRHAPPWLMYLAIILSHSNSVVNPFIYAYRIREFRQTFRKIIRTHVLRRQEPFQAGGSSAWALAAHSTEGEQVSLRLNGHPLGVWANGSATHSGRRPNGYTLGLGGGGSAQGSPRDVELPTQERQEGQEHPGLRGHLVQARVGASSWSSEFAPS

Row | Compound | inhibition at 10 µM ([1]; 1E-5M) [%] | inhibition at 0.1 µM ([1]; 1E-7M) [%] | ED50 [2] [mg/kg] | inhibition at 10 µM ([3]; 1E-5M) [%] | inhibition at 0.1 µM ([3]; 1E-7M) [%] | % displacement of the labeled ligand, A2, 1E-5M ([1]; 1E-5M, 10 µM) [%] | % displacement of the labeled ligand, A2, 1E-7M ([1]; 1E-7M, 0.1 µM) [%] | % displacement of the labeled ligand, A1, 1E-5M ([3]; 1E-5M, 10 µM) [%] | % displacement of the labeled ligand, A1, 1E-7M ([3]; 1E-7M, 0.1 µM) [%]
1 | O=C(NC1CC1)[C@H]1O[C@@H](n2cnc3c(NCCc4cn(Cc5ccc(Cl)cc5)c5ccccc45)ncnc32)[C@H](O)[C@@H]1O [Example 61, β-D-Ribofuranuronamido-1-[6-[[2-[1-(4-chlorobenzyl)indol-3-yl]ethyl]amino]-9H-purin-9-yl]-N-cyclopropyl-1-deoxy] | 91 | 30 | 0.9 | 98 | 47 |  |  |  | 
2 | COCCn1cc(CCNc2ncnc3c2ncn3[C@@H]2O[C@H](C(=O)NC3CC3)[C@@H](O)[C@H]2O)c2ccccc21 [Example 63, β-D-Ribofuranuronamido-N-cyclopropyl-1-deoxy-1-[6-[[2-[1-(2-methoxyethyl)indol-3-yl]ethyl]amino]-9H-purin-9-yl]] | 90 | 19 | 10 | 98 | 61 |  |  |  | 
3 | O=C(NC1CC1)[C@H]1O[C@@H](n2cnc3c(NCCc4cn(C5CCCC5)c5ccccc45)ncnc32)[C@H](O)[C@@H]1O [Example 64, β-D-Ribofuranuronamido-1-[6-[[2-[1-cyclopentylindol-3-yl]ethyl]amino]-9H-purin-9-yl]-N-cyclopropyl-1-deoxy] | 90 | 28 | 0.3 | 96 | 21 |  |  |  | 
4 | CC(C)n1cc(CCNc2ncnc3c2ncn3[C@@H]2O[C@H](C(=O)NC3CC3)[C@@H](O)[C@H]2O)c2ccccc21 [Example 65, β-D-Ribofuranuronamido-N-cyclopropyl-1-deoxy-1-[6-[[2-[1-isopropylindol-3-yl]-ethyl]amino]-9H-purin-9-yl]] | 91 | 14 | 0.3 | 87 | 4 |  |  |  | 
5 | Cc1ccc(Cn2cc(CCNc3ncnc4c3ncn4[C@@H]3O[C@H](C(=O)NC4CC4)[C@@H](O)[C@H]3O)c3ccccc32)cc1 [Example 66, β-D-Ribofuranuronamido-N-cyclopropyl-1-deoxy-1-[6-[[2-[1-(4-methylbenzyl)indol-3-yl]ethyl]amino]-9H-purin-9-yl]] | 89 | 21 | 3 | 97 | 37 |  |  |  | 
6 | Cc1ccc(Cn2cc(CCNc3ncnc4c3ncn4[C@@H]3O[C@H](C(=O)NC4CC4)[C@@H](O)[C@H]3O)c3ccccc32)cc1C [Example 67, β-D-Ribofuranuronamido-N-cyclopropyl-1-deoxy-1-[6-[[2-[1-(3,4-dimethylbenzyl)indol-3-yl]ethyl]amino]-9H-purin-9-yl]] | 83 | 13 | 3 | 96 | 29 |  |  |  | 
7 | O=C(NC1CC1)[C@H]1O[C@@H](n2cnc3c(NCCc4cn(CCN5CCOCC5)c5ccccc45)ncnc32)[C@H](O)[C@@H]1O [Example 69, β-D-Ribofuranuronamido-N-cyclopropyl-1-deoxy-1-[6-[[2-[1-(2-N-morpholinoethyl)indol-3-yl]ethyl]amino]-9H-purin-9-yl]] | 90 | 12 |  | 93 | 63 |  |  |  | 
8 | CN(C)CCn1cc(CCNc2ncnc3c2ncn3[C@@H]2O[C@H](C(=O)NC3CC3)[C@@H](O)[C@H]2O)c2ccccc21 [Example 70, β-D-Ribofuranuronamido-N-cyclopropyl-1-deoxy-1-[6-[[2-[1-(2-N,N-dimethylaminoethyl)indol-3-yl]ethyl]amino]-9H-purin-9-yl]] | 94 | 44 |  | 100 | 91 |  |  |  | 
9 | O=C(NC1CC1)[C@H]1O[C@@H](n2cnc3c(NCCc4cn(CCN5CCCCC5)c5ccccc45)ncnc32)[C@H](O)[C@@H]1O [Example 71 (base), β-D-Ribofuranuronamido-N-cyclopropyl-1-deoxy-1-[6-[[2-[1-(2-N-piperidinoethyl)indol-3-yl]ethyl]amino]-9H-purin-9-yl]] |  |  |  |  |  | 92 | 46 | 99 | 94
